Earlier results on three compounds are cited in patent US7309714B2, “Phenylalanine derivatives as dipeptidyl peptidase inhibitors for the treatment or prevention of diabetes” (Merck & Co., Inc., priority 2003, dated 2007).

The structures appear in SMILES notation.

The test system of one data set is cardiac allograft. Particulars: rats; survival doubled from day 7 to day 14.
Another data set addresses T1, DP-IV (Homo sapiens, UniProt P27487).
T1 construct: GRF is rapidly degraded in plasma to GRF[3-44]; from tissue

For another data set, the system named is hematopoiesis. The conditions noted are these: mouse, cyclophosphamide-induced neutropenia.

T1 sequence (P27487 whole entry): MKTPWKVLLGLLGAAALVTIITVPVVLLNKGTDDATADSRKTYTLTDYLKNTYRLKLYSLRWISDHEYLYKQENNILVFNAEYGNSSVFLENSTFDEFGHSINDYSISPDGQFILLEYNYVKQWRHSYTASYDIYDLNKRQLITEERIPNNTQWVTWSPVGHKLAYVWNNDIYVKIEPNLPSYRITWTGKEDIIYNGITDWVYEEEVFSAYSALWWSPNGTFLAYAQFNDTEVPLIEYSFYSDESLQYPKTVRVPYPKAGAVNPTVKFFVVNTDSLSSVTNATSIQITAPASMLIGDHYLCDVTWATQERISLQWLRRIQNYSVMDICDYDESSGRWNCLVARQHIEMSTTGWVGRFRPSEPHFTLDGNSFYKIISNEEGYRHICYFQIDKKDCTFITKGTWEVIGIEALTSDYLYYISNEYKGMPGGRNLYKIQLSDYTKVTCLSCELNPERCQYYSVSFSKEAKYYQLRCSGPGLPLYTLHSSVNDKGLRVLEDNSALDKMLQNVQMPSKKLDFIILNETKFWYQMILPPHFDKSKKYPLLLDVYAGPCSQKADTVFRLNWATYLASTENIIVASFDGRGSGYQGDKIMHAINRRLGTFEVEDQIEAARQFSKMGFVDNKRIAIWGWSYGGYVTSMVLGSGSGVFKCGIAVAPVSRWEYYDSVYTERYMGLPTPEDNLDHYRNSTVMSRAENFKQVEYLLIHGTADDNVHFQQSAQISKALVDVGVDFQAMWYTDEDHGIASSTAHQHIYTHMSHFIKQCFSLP

Regarding `CC(C)N1CCC(c2ccccc2)(c2ccccc2)CC1` [Prodipine, Pro-Pro-diphenyl-phosphonate], the cardiac allograft survival in the data set with cardiac allograft was 14 day.

For `CC[C@H](C)[C@H](N)C(=O)N1CCC[C@H]1C(=O)N[C@H](C(=O)O)[C@@H](C)CC` [diprotin A], at DP-IV, the “effect on degradation of GRF to GRF[3-44] in plasma” value was “prevented”.

Take `CC(C)[C@H](N)C(=O)N1CCC[C@H]1B(O)O` [Val-Boro-Pro]: in the data set on hematopoiesis, the effect on hematopoiesis result is reported as “stimulated hematopoiesis”.
